18 compounds from patent publication US9006454B2, “Dihydroorotate dehydrogenase inhibitors” (Merck Serono S.A., priority 2009, dated 2015) can be followed below.

The subject of one assay is Jurkat cells. The assay is described as follows: Measurement of cell proliferation (Jurkat cell), XTT assay. The class given is cell-based. The note with it: Homo sapiens, Jurkat; for inhibition at 1 µM: compound at 1 uM, read-out: % inh Jurkat_cells @ 1 uM (%); for EC50: 72 h, XTT cell viability. How it is done: See also Roehm, N et al [1991] An improved colorimetric assay for cell proliferation and viability utilizing the tetrazolium salt XTT. J. Immunol. Methods 142:257-265.
Culture Jurkat cells in T-25 flasks at a density of 0.2×10^6/ml 2-3 days before the day of experiment set up.
Centrifuge Jurkat T-cell suspension at 1200 rpm for 10 minutes and resuspend cells again in fresh RPMI medium with 10% FBS.
Count the cells and dilute suspension to a density of 2×10^6 cells/ml. Seed 50 μL of this suspension in each well of a 96 well plate (100,000 cells per well). Keep the edges of the plate empty to avoid evaporation.
Serially dilute DMSO stocks of compounds to get different concentrations for an EC50 curve. 50 μL of compound diluted in media (2× concentration required in well) is added to each well. DMSO concentration should be kept constant at 0.25-0.5% for all wells.
Typically, for all compounds with IC50<1 μM, compound concentration can start at 10 μM followed by half log dilutions for a total of 8-10 concentrations. Each concentration has to be tested in triplicate.
Include controls such as cells without compound (with same DMSO concentration as compound wells), and media control
Incubate the 96 well plate in a CO2 incubator at 37° C. for 72 hrs before determining cell viability using XTT assay
XTT assay: to each well, add 50 μL of 1 mg/ml XTT solution with 20 μl of PMS/mL. Read the plates after 2 hours at 465 nm using the spectrophotometer. XTT reading for media without cells is used as background reading.
Calculate % cell viability assuming that the cells without compound are 100% viable.
Plot % cell viability as a function of concentration and determine EC50 by using software such as Graph Pad Prism to fit the curve.
A general note: Tetrazolium assays rely on reduction of a dye to a coloured formazan, in cell work by metabolically active cells.

The next assay deals with DHODH (Homo sapiens (Human), UniProt Q02127). The assay is described as follows: DHODH activity assay (coupled enzyme assay, DCIP reduction, absorbance at 610 nm). The class given is biochemical. The conditions noted are these: for inhibition at 10 µM: compound at 10 uM, read-out: inh @ 10 uM hDHODH (%). How it is done: The DHODH activity assay is a coupled enzyme assay in which oxidation of DHO and subsequent reduction of ubiquinone are stoichiometrically equivalent to the reduction of DCIP ([…]). The reduction of DCIP is accompanied by a loss of absorbance at 610 nm.
Buffer Preparation: 50 mM tris HCl, 150 mM KCl, and pH 8.0, 0.8% triton.
5 μL of Dimethyl sulfoxide or a compound of formula I in DMSO solution was added to the wells of a 96 well plate. Compounds of formula I were measured at 10 μM.
Protein along with buffer was added, so that the total volume including the DMSO was 87 μL. Compound and protein were incubated for half an hour at room temperature after mixing. 5 μL of 20 mM solution of L-Dihydroorotic acid, 5 μL of 2 mM solution of Decylubiquinone and 3 μL of 2 mM solution of 2,6-Dichloroindophenol sodium salt hydrate were added to the above solution (total assay volume 100 μL). The mixture was stirred for 2 min and absorbance was recorded at every 10 min at 610 nanometers.
Percent Inhibition is Calculated as Follows
Positive control contains DMSO, buffer, enzyme and substrates
No Enzyme reaction contains DMSO, buffer and substrates
IC50 determination: • A 2 mM DMSO stock of the compound of formula I to be examined was prepared. ⅓rd dilutions were made as follows:
5 μL of each stock of compound of formula I (solution indicated in column 4 of table) was used for each 100 μL assay. Therefore, 5 μL of the 2 mM stock provided 100 μL of 100 μM solution of compound of formula I, when made up with buffer, protein and substrate. See also: Ulrich et al. (2001) Eur. J. Biochem. 268, 1861-1868.

DHODH, sequence (Q02127 whole entry): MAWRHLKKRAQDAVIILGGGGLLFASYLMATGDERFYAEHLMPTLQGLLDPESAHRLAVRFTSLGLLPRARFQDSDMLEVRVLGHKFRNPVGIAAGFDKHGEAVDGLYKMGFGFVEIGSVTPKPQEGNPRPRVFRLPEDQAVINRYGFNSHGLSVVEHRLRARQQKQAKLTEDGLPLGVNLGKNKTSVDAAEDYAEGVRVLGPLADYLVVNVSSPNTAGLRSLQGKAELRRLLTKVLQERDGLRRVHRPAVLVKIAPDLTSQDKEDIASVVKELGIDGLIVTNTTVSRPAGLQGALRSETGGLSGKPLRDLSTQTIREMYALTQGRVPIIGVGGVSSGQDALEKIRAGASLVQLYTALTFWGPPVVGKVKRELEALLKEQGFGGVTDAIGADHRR

With `Cc1cc(C(=O)O)c2nc(-c3ccc(Oc4c(F)c(F)c(F)c(F)c4F)cc3)[nH]c2c1` [I72, 6-Methyl-2-(4-pentafluorophenyloxy-phenyl)-1H-benzoimidazole-4-carboxylic acid], the inhibition at 1 µM with Jurkat cells turned out to be 9%. The inhibition at 10 µM at DHODH was 38%.

As for `Cc1cc(C(=O)O)c2[nH]c(-c3ccc(-c4cccc(OC5CCNCC5)c4)cc3)nc2c1` [I155], the inhibition at 1 µM in the assay on Jurkat cells was found to be 14.2%. Further, at DHODH, the inhibition at 10 µM was found to be 48.5%.

As a reminder, the IC50 is the point on the concentration scale where inhibition reaches its midpoint. High values mean weaker potency, low ones greater potency. For `O=C(O)c1cccc2[nH]c(-c3c(F)c(F)c(-c4ccc(F)c(F)c4)c(F)c3F)nc12` [I130], the inhibition at 1 µM with Jurkat cells is 23.2%. Besides, on DHODH, half-maximal inhibition (IC50) required 1220 nM and the inhibition at 10 µM turned out to be 66.9%.

In the case of `Cc1cc(-c2nnc(O)o2)c2nc(-c3ccc(-c4ccccc4)cc3)[nH]c2c1` [I165], in the assay with Jurkat cells, the inhibition at 1 µM is 29.7%. Besides, the inhibition at 10 µM at DHODH was determined as 46%.

With `O=C(O)c1cccc2[nH]c(-c3c(F)c(F)c(-c4ccccc4F)c(F)c3F)nc12` [I131], in the assay with Jurkat cells, the inhibition at 1 µM turned out to be 78.8%. Besides, at DHODH, the IC50 amounted to 18 nM and the inhibition at 10 µM was 79.3%.

As to `O=C(O)c1cccc2[nH]c(-c3ccc(Oc4c(F)cccc4F)cc3)nc12` [I56], in the assay with Jurkat cells, the inhibition at 1 µM is 38.8%. Further, on DHODH, inhibition was half-maximal at 1570 nM (IC50) and the inhibition at 10 µM came to 83.2%.

Regarding `Cc1cc(C(=O)O)c2[nH]c(-c3ccc(-c4ccc(CNC(C)C)cc4)cc3)nc2c1` [I160], in the assay with Jurkat cells, the inhibition at 1 µM came out at 19.6%. In addition, the inhibition at 10 µM at DHODH was 57.4%.

As to `Cc1ccc(C)n1-c1c(F)c(F)c(-c2nc3cccc(C(=O)O)c3[nH]2)c(F)c1F` [I110], the inhibition at 1 µM with Jurkat cells was found to be 97%. Besides, on DHODH, it took 110 nM to reach half-maximal inhibition (IC50) and the inhibition at 10 µM worked out at 106%.

Regarding `Cc1cc(C(=O)O)c2nc(-c3ccc(-c4ccc(Oc5ccccc5C#N)cc4)cc3)[nH]c2c1` [I112], the inhibition at 1 µM in the assay on Jurkat cells was determined as 49%. At DHODH, the IC50 is 2030 nM and the inhibition at 10 µM came to 85%.

Regarding `O=C(O)c1cccc2nc(-c3c(F)c(F)c(-c4cccs4)c(F)c3F)[nH]c12` [I124], the inhibition at 1 µM with Jurkat cells is 80.1%. In addition, at DHODH, the IC50 was found to be 500 nM and the inhibition at 10 µM was determined as 104%.

For orientation: EC50 means the concentration at which the effect is half-maximal. The low end stands for a more potent agent, the high end for a less potent agent. Take `Cc1cc(C(=O)O)c2[nH]c(-c3ccc(-c4ccccc4)cc3F)nc2c1` [I28]: in the assay with Jurkat cells, the EC50 turned out to be 206 nM and the inhibition at 1 µM is 75.4%. Moreover, at DHODH, the half-inhibitory concentration (IC50) worked out at 403 nM and the inhibition at 10 µM stood at 96.3%.

As to `Cc1cc(C(=O)O)c2nc(-c3ccc(-c4ccc(Oc5ccccc5C(=O)O)cc4)cc3)[nH]c2c1` [I137], the inhibition at 1 µM in the assay with Jurkat cells is 31%. At DHODH, the IC50 is 2240 nM and the inhibition at 10 µM was determined as 65.1%.

As for `O=C(O)c1cccc2[nH]c(-c3ccc(-c4ccc(CO)cc4)cc3)nc12` [I173], the inhibition at 1 µM in the assay on Jurkat cells was determined as 44%. For the same compound, the inhibition at 10 µM at DHODH was 80%.

As to `Cc1cc(C(=O)O)c2nc(-c3ccc(-c4ccccc4)cc3)[nH]c2c1` [I14], in the assay with Jurkat cells, the EC50 amounted to 263 nM and the inhibition at 1 µM came out at 76.9%. Moreover, on DHODH, 304 nM corresponded to half-maximal inhibition (IC50) and the inhibition at 10 µM came out at 102%.

Take `O=C(O)c1cccc2[nH]c(-c3ccc(-c4cccs4)cc3)nc12` [I192]: the inhibition at 1 µM with Jurkat cells came out at 26.1%. For the same compound, the inhibition at 10 µM at DHODH is 74.7%.

Consider `Cc1cc(C(=O)O)c2[nH]c(-c3ccc(Oc4ccccc4)cc3)nc2c1` [I67], for which the inhibition at 1 µM with Jurkat cells worked out at 29.3%. For the same compound, on DHODH, 3410 nM corresponded to half-maximal inhibition (IC50) and the inhibition at 10 µM is 74.2%.

In the case of `O=C(O)c1cccc2nc(-c3ccc(-c4ccccc4)cc3)oc12` [I19], the inhibition at 1 µM with Jurkat cells was determined as 34.3%. Besides, at DHODH, half-maximal inhibition (IC50) was put at 3030 nM and the inhibition at 10 µM is 80.1%.

With `Cc1cc(C(=O)O)c2nc(-c3c(F)c(F)c(-c4ccc(CN5CCCCC5)cc4)c(F)c3F)[nH]c2c1` [I83, 6-Methyl-2-(2,3,5,6-tetrafluoro-4′-piperidin-1-ylmethyl-biphenyl-4-yl)-1H-benzoimidazole-4-carboxylic acid], the inhibition at 1 µM with Jurkat cells came to 93%. In addition, on DHODH, the IC50 is 78 nM and the inhibition at 10 µM came to 111%.
